In the supplement of paper PMC10307832:

Tests used:
Experiment in all cases: relative viability (nuclei count vs DMSO), 5 days (fraction); higher = more cells survive
[1] = compound: CN1CCN(CC1)C2=CC(=C(C=C2)NC3=NC(=C(S3)C(=O)C4=C(C=CC=C4Cl)Cl)N)OC [XMD14-99] + CCNC(=O)c1noc(-c2cc(C(C)C)c(O)cc2O)c1-c1ccc(CN2CCOCC2)cc1 [Luminespib] (partner 0.01 µM)
How it was run: (§1)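 Relative viability divides the nuclei count in treated wells by that in vehicle wells. Lung cancer cell lines were seeded in 1536-well plates, dosed by pin tool the next day, and fixed and stained after 5 days in one step with final 0.05% Triton X-100, 1% formaldehyde and 1 ug/ml Hoechst. Dosing was a single drug or a fixed anchor-drug dose plus five library-drug doses (not always all listed) in √10 steps, and values are medians of duplicate plates imaged at 4×.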

[2] = compound: CN1CCN(CC1)C2=CC(=C(C=C2)NC3=NC(=C(S3)C(=O)C4=C(C=CC=C4Cl)Cl)N)OC [XMD14-99] + O=C(c1cc(Cc2n[nH]c(=O)c3ccccc23)ccc1F)N1CCN(C(=O)C2CC2)CC1 [Olaparib] (partner 8 µM)
How it was run: as §1

[3] = compound: N[C@@H]1CCCN(c2c(/C=C3\SC(=O)NC3=O)cccc2-c2ccccc2)C1 [AZD1208] + CS(=O)(=O)N1CCN(Cc2cc3nc(-c4cccc5[nH]ncc45)nc(N4CCOCC4)c3s2)CC1 [Pictilisib] (partner 1 µM)
How it was run: as §1

[4] = compound: N[C@@H]1CCCN(c2c(/C=C3\SC(=O)NC3=O)cccc2-c2ccccc2)C1 [AZD1208] + NC(=O)Nc1cc(-c2cccc(F)c2)sc1C(=O)N[C@H]1CCCNC1 [AZD7762] (partner 0.2 µM)
How it was run: as §1

Cell Line NCI-H2347 has a relative viability ([1]; first compound 0.08 µM) of 0.337, a relative viability ([1]; first compound 0.8 µM) of 0.339 and a relative viability ([1]; first compound 2.53 µM) of 0.368. It also gave a relative viability ([1]; first compound 8 µM) of 0.301, a relative viability ([2]; first compound 0.08 µM) of 0.557 and a relative viability ([2]; first compound 0.8 µM) of 0.568. The relative viability ([2]; first compound 2.53 µM) was 0.601, the relative viability ([2]; first compound 8 µM) was 0.446 and the relative viability ([3]; first compound 0.08 µM) was 0.467. For the same cell line, the relative viability ([3]; first compound 0.253 µM) was 0.782, the relative viability ([3]; first compound 0.8 µM) was 0.558 and the relative viability ([3]; first compound 2.53 µM) was 0.495. It also gave a relative viability ([3]; first compound 8 µM) of 0.495, a relative viability ([4]; first compound 0.08 µM) of 0.835 and a relative viability ([4]; first compound 0.253 µM) of 0.747. For the same cell line, the relative viability ([4]; first compound 0.8 µM) was 0.72, the relative viability ([4]; first compound 2.53 µM) was 0.764 and the relative viability ([4]; first compound 8 µM) was 0.781.

Work on NCI-H1395 yielded a relative viability ([1]; first compound 0.08 µM) of 0.733, a relative viability ([1]; first compound 0.8 µM) of 0.685 and a relative viability ([1]; first compound 2.53 µM) of 0.699. The relative viability ([1]; first compound 8 µM) was 0.555, the relative viability ([2]; first compound 0.08 µM) was 0.475 and the relative viability ([2]; first compound 0.8 µM) was 0.472. For the same cell line, the relative viability ([2]; first compound 2.53 µM) was 0.47, the relative viability ([2]; first compound 8 µM) was 0.364 and the relative viability ([3]; first compound 0.08 µM) was 0.694. The relative viability ([3]; first compound 0.253 µM) was 0.618, the relative viability ([3]; first compound 0.8 µM) was 0.553 and the relative viability ([3]; first compound 2.53 µM) was 0.554. It also gave a relative viability ([3]; first compound 8 µM) of 0.644, a relative viability ([4]; first compound 0.08 µM) of 0.39 and a relative viability ([4]; first compound 0.253 µM) of 0.401. It also gave a relative viability ([4]; first compound 0.8 µM) of 0.377, a relative viability ([4]; first compound 2.53 µM) of 0.448 and a relative viability ([4]; first compound 8 µM) of 0.367.

For 201T, the relative viability ([1]; first compound 0.08 µM) was 1, the relative viability ([1]; first compound 0.8 µM) was 1.01 and the relative viability ([1]; first compound 2.53 µM) was 0.993. The relative viability ([1]; first compound 8 µM) was 0.829, the relative viability ([2]; first compound 0.08 µM) was 0.861 and the relative viability ([2]; first compound 0.8 µM) was 0.799. The relative viability ([2]; first compound 2.53 µM) was 0.776, the relative viability ([2]; first compound 8 µM) was 0.695 and the relative viability ([3]; first compound 0.08 µM) was 0.644. The relative viability ([3]; first compound 0.253 µM) was 0.641, the relative viability ([3]; first compound 0.8 µM) was 0.649 and the relative viability ([3]; first compound 2.53 µM) was 0.62. The relative viability ([3]; first compound 8 µM) was 0.686, the relative viability ([4]; first compound 0.08 µM) was 0.669 and the relative viability ([4]; first compound 0.253 µM) was 0.654. The relative viability ([4]; first compound 0.8 µM) was 0.565, the relative viability ([4]; first compound 2.53 µM) was 0.693 and the relative viability ([4]; first compound 8 µM) was 0.511.

For NCI-H2170, the relative viability ([1]; first compound 0.08 µM) was 0.652, the relative viability ([1]; first compound 0.8 µM) was 0.59 and the relative viability ([1]; first compound 2.53 µM) was 0.755. It also gave a relative viability ([1]; first compound 8 µM) of 0.372, a relative viability ([2]; first compound 0.08 µM) of 0.543 and a relative viability ([2]; first compound 0.8 µM) of 0.565. It also gave a relative viability ([2]; first compound 2.53 µM) of 0.537, a relative viability ([2]; first compound 8 µM) of 0.466 and a relative viability ([3]; first compound 0.08 µM) of 0.319. For the same cell line, the relative viability ([3]; first compound 0.253 µM) was 0.263, the relative viability ([3]; first compound 0.8 µM) was 0.254 and the relative viability ([3]; first compound 2.53 µM) was 0.213. For the same cell line, the relative viability ([3]; first compound 8 µM) was 0.224, the relative viability ([4]; first compound 0.08 µM) was 0.911 and the relative viability ([4]; first compound 0.253 µM) was 0.923. It also gave a relative viability ([4]; first compound 0.8 µM) of 0.821, a relative viability ([4]; first compound 2.53 µM) of 0.796 and a relative viability ([4]; first compound 8 µM) of 0.424.

NCI-H727 gave a relative viability ([1]; first compound 0.08 µM) of 0.383, a relative viability ([1]; first compound 0.8 µM) of 0.305 and a relative viability ([1]; first compound 2.53 µM) of 0.203. The relative viability ([1]; first compound 8 µM) was 0.352, the relative viability ([2]; first compound 0.08 µM) was 0.737 and the relative viability ([2]; first compound 0.8 µM) was 0.68. For the same cell line, the relative viability ([2]; first compound 2.53 µM) was 0.712, the relative viability ([2]; first compound 8 µM) was 0.523 and the relative viability ([3]; first compound 0.08 µM) was 0.355. The relative viability ([3]; first compound 0.253 µM) was 0.297, the relative viability ([3]; first compound 0.8 µM) was 0.262 and the relative viability ([3]; first compound 2.53 µM) was 0.264. It also gave a relative viability ([3]; first compound 8 µM) of 0.355, a relative viability ([4]; first compound 0.08 µM) of 0.586 and a relative viability ([4]; first compound 0.253 µM) of 0.708. It also gave a relative viability ([4]; first compound 0.8 µM) of 0.502, a relative viability ([4]; first compound 2.53 µM) of 0.441 and a relative viability ([4]; first compound 8 µM) of 0.518.

HCC-15 gave a relative viability ([1]; first compound 0.08 µM) of 0.412, a relative viability ([1]; first compound 0.8 µM) of 0.258 and a relative viability ([1]; first compound 2.53 µM) of 0.214. For the same cell line, the relative viability ([1]; first compound 8 µM) was 0.256, the relative viability ([2]; first compound 0.08 µM) was 0.688 and the relative viability ([2]; first compound 0.8 µM) was 0.661. It also gave a relative viability ([2]; first compound 2.53 µM) of 0.706, a relative viability ([2]; first compound 8 µM) of 0.441 and a relative viability ([3]; first compound 0.08 µM) of 0.611. For the same cell line, the relative viability ([3]; first compound 0.253 µM) was 0.679, the relative viability ([3]; first compound 0.8 µM) was 0.524 and the relative viability ([3]; first compound 2.53 µM) was 0.548. The relative viability ([3]; first compound 8 µM) was 0.515, the relative viability ([4]; first compound 0.08 µM) was 1.19 and the relative viability ([4]; first compound 0.253 µM) was 1.26. The relative viability ([4]; first compound 0.8 µM) was 1.03, the relative viability ([4]; first compound 2.53 µM) was 1.43 and the relative viability ([4]; first compound 8 µM) was 1.19.

For ABC-1, the relative viability ([1]; first compound 0.08 µM) was 0.511, the relative viability ([1]; first compound 0.8 µM) was 0.7 and the relative viability ([1]; first compound 2.53 µM) was 0.806. For the same cell line, the relative viability ([1]; first compound 8 µM) was 0.382, the relative viability ([2]; first compound 0.08 µM) was 0.696 and the relative viability ([2]; first compound 0.8 µM) was 1.03. For the same cell line, the relative viability ([2]; first compound 2.53 µM) was 0.737, the relative viability ([2]; first compound 8 µM) was 0.673 and the relative viability ([3]; first compound 0.08 µM) was 0.526. It also gave a relative viability ([3]; first compound 0.253 µM) of 0.665, a relative viability ([3]; first compound 0.8 µM) of 0.565 and a relative viability ([3]; first compound 2.53 µM) of 0.623. It also gave a relative viability ([3]; first compound 8 µM) of 0.627, a relative viability ([4]; first compound 0.08 µM) of 0.905 and a relative viability ([4]; first compound 0.253 µM) of 0.728. For the same cell line, the relative viability ([4]; first compound 0.8 µM) was 0.785, the relative viability ([4]; first compound 2.53 µM) was 0.884 and the relative viability ([4]; first compound 8 µM) was 1.35.

For LCLC-103H, the relative viability ([1]; first compound 0.08 µM) was 0.984, the relative viability ([1]; first compound 0.8 µM) was 1.1 and the relative viability ([1]; first compound 2.53 µM) was 0.84. It also gave a relative viability ([1]; first compound 8 µM) of 0.847, a relative viability ([2]; first compound 0.08 µM) of 0.764 and a relative viability ([2]; first compound 0.8 µM) of 0.779. It also gave a relative viability ([2]; first compound 2.53 µM) of 0.752, a relative viability ([2]; first compound 8 µM) of 0.657 and a relative viability ([3]; first compound 0.08 µM) of 0.568. It also gave a relative viability ([3]; first compound 0.253 µM) of 0.614, a relative viability ([3]; first compound 0.8 µM) of 0.485 and a relative viability ([3]; first compound 2.53 µM) of 0.455. It also gave a relative viability ([3]; first compound 8 µM) of 0.448, a relative viability ([4]; first compound 0.08 µM) of 0.843 and a relative viability ([4]; first compound 0.253 µM) of 0.84. For the same cell line, the relative viability ([4]; first compound 0.8 µM) was 0.774, the relative viability ([4]; first compound 2.53 µM) was 0.74 and the relative viability ([4]; first compound 8 µM) was 0.689.

In the case of NCI-H460, the relative viability ([1]; first compound 0.08 µM) is reported as 0.0305, the relative viability ([1]; first compound 0.8 µM) is reported as 0.037 and the relative viability ([1]; first compound 2.53 µM) is reported as 0.0277. It also gave a relative viability ([1]; first compound 8 µM) of 0.0243, a relative viability ([2]; first compound 0.08 µM) of 0.394 and a relative viability ([2]; first compound 0.8 µM) of 0.432. For the same cell line, the relative viability ([2]; first compound 2.53 µM) was 0.421, the relative viability ([2]; first compound 8 µM) was 0.182 and the relative viability ([3]; first compound 0.08 µM) was 0.341. The relative viability ([3]; first compound 0.253 µM) was 0.322, the relative viability ([3]; first compound 0.8 µM) was 0.289 and the relative viability ([3]; first compound 2.53 µM) was 0.308. For the same cell line, the relative viability ([3]; first compound 8 µM) was 0.37, the relative viability ([4]; first compound 0.08 µM) was 0.844 and the relative viability ([4]; first compound 0.253 µM) was 0.716. For the same cell line, the relative viability ([4]; first compound 0.8 µM) was 0.643, the relative viability ([4]; first compound 2.53 µM) was 0.824 and the relative viability ([4]; first compound 8 µM) was 0.7.
